We go through five cell lines from the supplement of paper PMC10307832.

Common to all, as to assay: relative viability (nuclei count vs DMSO), 5 days (fraction); higher = more cells survive
Compound in experiment [1]: O=C(NC1CCNCC1)c1n[nH]cc1NC(=O)c1c(Cl)cccc1Cl [AT-7519] + O=C(CCCCCCC(=O)Nc1ccccc1)NO [Vorinostat] (partner 1 µM)
Summed up: (§1)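 Each reported value is a median over duplicate plates. It expresses relative viability: treated-well nuclei count divided by vehicle-well nuclei count. Lung cancer cell lines in 1536-well plates were dosed by pin tool a day after seeding, alone with one drug or with a fixed anchor-drug dose plus five library-drug doses (not always all listed) in √10 steps, and nuclei were counted after 5 days.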

Compound in experiment [2]: O=C(NC1CCNCC1)c1n[nH]cc1NC(=O)c1c(Cl)cccc1Cl [AT-7519] + Nc1ncn([C@H]2C[C@H](O)[C@@H](CO)O2)c(=O)n1 [Decitabine] (partner 2 µM)
Summed up: as §1

Compound in experiment [3]: O=C(NC1CCNCC1)c1n[nH]cc1NC(=O)c1c(Cl)cccc1Cl [AT-7519] + Cc1nc(Nc2ncc(C(=O)Nc3c(C)cccc3Cl)s2)cc(N2CCN(CCO)CC2)n1 [Dasatinib] (partner 0.075 µM)
Put shortly:
as §1

Compound in experiment [4]: C1=CC2=C(C=C(C(=C2N=C1)O)N=NC3=CC4=C(C=C3)C=C(C=C4)S(=O)(=O)O)S(=O)(=O)O + O=C(CCCCCCC(=O)Nc1ccccc1)NO [Vorinostat] (partner 1 µM)
Summed up: as §1

On to NCI-H1650, for which the relative viability in experiment [1] (first compound 0.01 µM) was 0.534; in experiment [1] (first compound 0.03162 µM), 0.681; in experiment [1] (first compound 0.3162 µM) it was 0.489; in experiment [1] (first compound 1 µM), 0.23; in experiment [2] (first compound 0.01 µM) it was 0.401; in experiment [2] (first compound 0.03162 µM) it was 0.388. Moreover, the relative viability in experiment [2] (first compound 0.3162 µM) was determined as 0.431; in experiment [2] (first compound 1 µM), 0.204; in experiment [3] (first compound 0.01 µM), 0.32; in experiment [3] (first compound 0.03162 µM) it was 0.293; in experiment [3] (first compound 0.3162 µM) it was 0.22; in experiment [3] (first compound 1 µM), 0.164. Also, the relative viability in experiment [4] (first compound 0.08 µM) came out at 0.577; in experiment [4] (first compound 0.253 µM) it was 0.447; in experiment [4] (first compound 0.8 µM) it was 0.594; in experiment [4] (first compound 2.53 µM), 0.633; in experiment [4] (first compound 8 µM), 0.373.
Take NCI-H2085: the relative viability in experiment [1] (first compound 0.01 µM) worked out at 0.783; in experiment [1] (first compound 0.03162 µM), 0.78; in experiment [1] (first compound 0.3162 µM), 0.74; in experiment [1] (first compound 1 µM) it was 0.929; in experiment [2] (first compound 0.01 µM) it was 0.621; in experiment [2] (first compound 0.03162 µM) it was 0.561. Further, the relative viability in experiment [2] (first compound 0.3162 µM) turned out to be 0.532; in experiment [2] (first compound 1 µM) it was 0.508; in experiment [3] (first compound 0.01 µM) it was 0.219; in experiment [3] (first compound 0.03162 µM), 0.242; in experiment [3] (first compound 0.3162 µM) it was 0.256; in experiment [3] (first compound 1 µM), 0.218. Further, the relative viability is 0.85 in experiment [4] (first compound 0.08 µM); 0.775 in experiment [4] (first compound 0.253 µM); 0.717 in experiment [4] (first compound 0.8 µM); 0.775 in experiment [4] (first compound 2.53 µM); 0.702 in experiment [4] (first compound 8 µM).
Turning to NCI-H1793, the relative viability in experiment [1] (first compound 0.01 µM) came to 0.514; in experiment [1] (first compound 0.03162 µM) it was 0.849; in experiment [1] (first compound 0.3162 µM), 0.615; in experiment [1] (first compound 1 µM), 0.767; in experiment [2] (first compound 0.01 µM), 0.517; in experiment [2] (first compound 0.03162 µM) it was 0.551. For the same cell line, the relative viability in experiment [2] (first compound 0.3162 µM) amounted to 0.449; in experiment [2] (first compound 1 µM), 0.378; in experiment [3] (first compound 0.01 µM), 0.319; in experiment [3] (first compound 0.03162 µM), 0.361; in experiment [3] (first compound 0.3162 µM), 0.407; in experiment [3] (first compound 1 µM), 0.247. Further, the relative viability was 0.797 in experiment [4] (first compound 0.08 µM); 0.814 in experiment [4] (first compound 0.253 µM); 0.795 in experiment [4] (first compound 0.8 µM); 0.78 in experiment [4] (first compound 2.53 µM); 0.838 in experiment [4] (first compound 8 µM).
Consider LC-2-ad, for which the relative viability in experiment [1] (first compound 0.01 µM) is 0.717; in experiment [1] (first compound 0.03162 µM) it was 0.665; in experiment [1] (first compound 0.3162 µM) it was 0.748; in experiment [1] (first compound 1 µM), 0.781; in experiment [2] (first compound 0.01 µM), 0.789; in experiment [2] (first compound 0.03162 µM), 0.765. Also, the relative viability in experiment [2] (first compound 0.3162 µM) amounted to 0.838; in experiment [2] (first compound 1 µM), 0.737; in experiment [3] (first compound 0.01 µM) it was 0.555; in experiment [3] (first compound 0.03162 µM), 0.61; in experiment [3] (first compound 0.3162 µM), 0.328; in experiment [3] (first compound 1 µM), 0.332. The relative viability is 0.702 in experiment [4] (first compound 0.08 µM); 0.744 in experiment [4] (first compound 0.253 µM); 0.729 in experiment [4] (first compound 0.8 µM); 0.699 in experiment [4] (first compound 2.53 µM); 0.725 in experiment [4] (first compound 8 µM).
On to COR-L 105, for which the relative viability in experiment [1] (first compound 0.01 µM) is 0.791; in experiment [1] (first compound 0.03162 µM) it was 0.856; in experiment [1] (first compound 0.3162 µM) it was 0.686; in experiment [1] (first compound 1 µM), 0.499; in experiment [2] (first compound 0.01 µM), 0.687; in experiment [2] (first compound 0.03162 µM) it was 0.682. Besides, the relative viability was found to be 0.608 in experiment [2] (first compound 0.3162 µM); 0.351 in experiment [2] (first compound 1 µM); 0.366 in experiment [3] (first compound 0.01 µM); 0.334 in experiment [3] (first compound 0.03162 µM); 0.259 in experiment [3] (first compound 0.3162 µM); 0.23 in experiment [3] (first compound 1 µM). For the same cell line, the relative viability in experiment [4] (first compound 0.08 µM) stood at 0.852; in experiment [4] (first compound 0.253 µM) it was 0.86; in experiment [4] (first compound 0.8 µM) it was 0.742; in experiment [4] (first compound 2.53 µM), 0.866; in experiment [4] (first compound 8 µM), 0.881.
